In paper PMC10819746, “Investigating Novel IspE Inhibitors of the MEP Pathway in Mycobacterium” (Microorganisms, 2023):

Target: T1, IspE (4-diphosphocytidyl-2-c-methyl-d-erythritol kinase; Rv1011) (Mycobacterium tuberculosis, UniProt P9WKG7)
T1 sequence (P9WKG7 2-318): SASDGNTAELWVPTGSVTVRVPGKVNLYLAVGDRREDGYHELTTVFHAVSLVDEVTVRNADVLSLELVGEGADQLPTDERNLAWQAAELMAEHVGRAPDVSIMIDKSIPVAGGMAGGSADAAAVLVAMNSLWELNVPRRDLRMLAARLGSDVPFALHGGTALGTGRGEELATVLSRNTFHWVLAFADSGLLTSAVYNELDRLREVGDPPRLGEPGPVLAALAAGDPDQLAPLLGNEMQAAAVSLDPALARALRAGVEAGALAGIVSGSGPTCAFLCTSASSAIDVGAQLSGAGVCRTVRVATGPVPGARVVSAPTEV
Assay: ADP Quest HS coupled fluorescent kinase assay (resorufin) with Rv1011, ATP and CDP-ME
Assay type: biochemical

**Q.** How did the IC50 turn out when Cc1ccc([C@H]2c3c([nH]n(-c4ccccc4)c3=O)NC3=C[C@H](C)CC(=O)[C@H]32)cc1 [A1] was run?
**A.** 15.6 µM
